The values that follow are results of earlier work, collected in PMC2228077, “The bioavailability of oral GI147211 (GG211), a new topoisomerase I inhibitor” (British Journal of Cancer, 1997).

Details of series [1]: method as in Kuhn et al, 1995; Schellens et al, 1996. To be noted: oral topotecan; ref Kuhn et al, 1995; Schellens et al, 1996; cited from earlier work.
Details of series [2]: method as in Rowinsky et al, 1992; Verweij et al, 1993. Particulars: ref Rowinsky et al, 1992; Verweij et al, 1993; cited from earlier work.
For series [3] the following is noted: human, in vivo, po; cited from earlier work.

“And” between values parts separate entries of the source, which are not always exact repeats. Equal entries are not always repeated.

For `CC[C@@]1(O)C(=O)OCc2c1cc1n(c2=O)Cc2cc3c(CN(C)C)c(O)ccc3nc2-1` [topotecan], the “bioavailability (variable systemic exposure)” value in series [1] is 32% and 44%. For the same compound, the dose-limiting toxicity entry in series [2] is “cumulative myelosuppression”. Regarding `CC[C@@]1(O)C(=O)OCc2c1cc1n(c2=O)Cc2cc3c([N+](=O)[O-])cccc3nc2-1` [9-nitro-camptothecin], the “patients who developed CTC grade >= II diarrhoea” value in series [3] was 33%.
